How the values were obtained:
Conditions in all cases: in vivo
[1] = Pharmacokinetics in rhesus monkey
Pharmacokinetics in dog = experiment: Pharmacokinetics in dog
Pharmacokinetics in rat = experiment: Pharmacokinetics in rat

Structure (SMILES)	bioavailability [1] [%]	clearance [1] [mL/min/kg]	half-life [1] [min]	bioavailability (Pharmacokinetics in dog) [%]	clearance (Pharmacokinetics in dog) [mL/min/kg]	half-life (Pharmacokinetics in dog) [min]	bioavailability (Pharmacokinetics in rat) [%]	clearance (Pharmacokinetics in rat) [mL/min/kg]	half-life (Pharmacokinetics in rat) [min]
CS(=O)(=O)C1CCN(Cc2ccnc(Nc3ncc(C#N)s3)c2)CC1 [Compound 5-6, 2-[(4-{[4-(methylsulfonyl)piperidin-1-yl]methyl}pyridin-2-yl)amino]-1,3-thiazole-5-carbonitrile]	67	3	330	95	1.8	378	70	16.3	66
CC(=O)N1CCN(Cc2ccnc(Nc3ncc(C#N)s3)c2C)CC1	–	–	–	–	14	84	–	–	–
CN(C)C(=O)N1CCN(Cc2ccnc(Nc3ncc(C#N)s3)c2)CC1	–	–	–	49	3.6	204	–	15.5	96

The next lines start with the values.

bioavailability [1] [%]	clearance [1] [mL/min/kg]	half-life [1] [min]	bioavailability (Pharmacokinetics in dog) [%]	clearance (Pharmacokinetics in dog) [mL/min/kg]	half-life (Pharmacokinetics in dog) [min]	bioavailability (Pharmacokinetics in rat) [%]	clearance (Pharmacokinetics in rat) [mL/min/kg]	half-life (Pharmacokinetics in rat) [min]	Structure (SMILES)
43	13.4	102	99	0.5	1040	49	10.7	114	CNC(=O)N1CCN(Cc2ccnc(Nc3ncc(C#N)s3)c2)CC1 [Compound 4-4, 4-[2-(5-cyano-thiazol-2-ylamino)-pyridin-4-ylmethyl]-piperazine-1-carboxylic acid methylamide]
–	–	–	–	2.6	126	–	–	–	N#Cc1cnc(Nc2cc(CN3CCN(C(N)=O)CC3)ccn2)s1

— US20030100567A1, “Tyrosine kinase inhibitors” (priority 2001, published 2003)
